The source of these data is a melting point compilation (Tetko et al.; mined from patent text by program, amines drawn as free bases though some values may be those of a salt).

Molecule `O=C(O)CCCc1cc2nc(Cl)ccc2n1S(=O)(=O)c1ccc(Cl)cc1` gave a melting point of 174 °C.
In the case of `Cc1ccc(C=CC(=O)c2ccccc2)o1`, the melting point was 57 to 61 °C.
To `CCCN(c1ccc(C(F)(F)F)cc1)c1nc(=O)c2cccnc2s1` belongs 216 to 217 °C.
`O=C(c1ccc(F)cc1)N1CCN(CC(O)Cn2c3ccccc3c3ccccc32)CC1` (stereo not given): the melting point is 70 to 80 °C.
`C[C@@H](n1cnc2cc(-c3ccc(C(N)=O)cc3)sc2c1=O)[C@](O)(Cn1cncn1)c1ccc(F)cc1F` yielded a melting point of 280 to 285 °C.
Consider `COc1ccc(C=CC(=O)c2ccc(O)c(CC(=O)O)c2)cc1OC`, for which the melting point worked out at 225 °C.
With `NC(=O)c1nc(-c2cccc(O)c2)nc2c1[nH]c(=O)n2CC1CCOCC1`, the melting point was in the range of 363 to 365 °C.
Under `CCOC(=NC(=O)c1ccccc1)N1Cc2ccccc2-c2ccccc2C1` stands 116 to 117 °C.
Regarding `O=C(O)C1=C(c2cc(-c3ccccc3)[nH]n2)CCCC1`, the melting point lay within 207 to 209 °C.
Molecule `CN1CCN(C2=Nc3cc(Br)ccc3-n3ccc4cccc2c43)CC1` yielded a melting point of 164 to 166 °C.
Under `OCCN1CCN(C2=Nc3cc(Br)ccc3Oc3cscc32)CC1` stands 150 to 152 °C.
Take `COc1ccc(CN2C(=O)C(C)(c3cc(CN4CCCCC4=O)ccc3Cl)c3cc(Cl)ccc32)c(OC)c1` (stereo not given): the melting point was 72 °C.
`Cc1cc(Sc2ccccc2)ccc1[N+](=O)[O-]` had a melting point of 69 to 75 °C.
Molecule `COC(=O)C1Cc2c([nH]c3ccccc23)C(c2ccc(Cl)c(Cl)c2)N1` (stereo not given) registered a melting point of 90 to 92 °C.
`CNc1nc(NCc2ccc(NC(=O)c3ccc(F)cc3)cc2)c2c(C)cccc2n1`: the melting point fell in the range of 228 to 230 °C.
In turn, `Cc1nn(-c2cc(Oc3ccc([N+](=O)[O-])cn3)c(Cl)cc2F)c(=O)n1C(F)F` returned a melting point of 120 to 123 °C.
In the case of `O=C1C(Cc2ccccc2C(F)F)c2ccccc2C12COc1cc3c(cc12)OCCO3` (stereo not given), the melting point fell in the range of 191 to 193 °C.
Regarding `CSc1ccc2ncn(CCN3CCC(Nc4nc5ccccc5n4Cc4ccc(F)cc4)CC3)c(=O)c2c1`, the melting point stood at 101 °C.
As for `COc1cc2c(cc1OC)CN(CCc1cccc(NC(=O)c3cccc4c(=O)c5cccc(OC)c5[nH]c34)c1)CC2`, the melting point came to 152 °C.
Regarding `CN1CCC(O)c2cccc(CSc3nc4ccccc4[nH]3)c21` (stereo not given), the melting point was in the range of 144 to 145 °C.
On to `COc1ccc(-c2cnn(-c3cccc(C(=O)O)c3)c2)cc1`, for which the melting point lay within 238 to 239 °C.
Under `Nc1ccc(Oc2ccc(C3CCCCC3)cc2)c(N)c1` stands 101 °C; under `Cc1ccc2c(C(=O)C3CSC(c4cccnc4)N3)c[nH]c2c1` (stereo not given), 132 to 138 °C.
To `CC(Cc1cccnc1)(NC(=O)OC1C2CC3CC(C2)CC1C3)C(=O)NC(CO)Cc1ccccc1` (stereo not given) belongs 63 to 67 °C; to `CN(C)C(=O)Oc1ccc(CCl)cc1`, 68 °C.
Molecule `Cc1c(CCC(=O)c2cn(Cc3ccccc3)c3ccccc23)ncn1C(c1ccccc1)(c1ccccc1)c1ccccc1` had a melting point of 186 to 188 °C.
In turn, `Cc1cccc(C)c1CNc1c(NC(C)(C)C)c(=O)c1=O` yielded a melting point of 265 to 267 °C.
Molecule `CC(C)Nc1nn(C)c(=O)c2cn(Cc3cccc4ccccc34)cc12` returned a melting point of 221 to 222 °C.
`Clc1cc(Cl)c(C#C[Si](c2ccccc2)(c2ccccc2)c2ccccc2)c(Cl)c1` returned a melting point of 115 to 120 °C.
On to `CCOc1cc2c(c3c1OC(C)(C)C3)C(c1ccccc1)=[N+]([O-])C(C)(C)C2`, for which the melting point fell in the range of 125 to 126 °C.
Turning to `c1cncc(-c2cncnc2)c1`, the melting point was in the range of 101 to 103 °C.
`O=c1[nH]c(CCc2ccccc2OCc2ccccc2)ccc1-c1nnn[nH]1` gave a melting point of 211 to 213 °C.
Take `CCN(CC)CCOC1CCC2C3CCc4cc(OC)ccc4C3CCC12CC` (stereo not given): the melting point was 66 to 67 °C.
Under `COc1ccc(C2(O)CCN(C(=O)OCc3ccccc3)CC2)cc1` stands 98 °C.
Turning to `FC1CNC(c2ccc3c(c2)OCO3)c2[nH]c3ccccc3c21` (stereo not given), the melting point was 172 °C.
In the case of `C=CN(C(=O)CCl)c1c(CC)cccc1CC`, the melting point was in the range of 45 to 47 °C.
For the molecule `COc1ccc(C2=NN(C3CCN(c4ncnc5sccc45)CC3)C(=O)[C@@H]3CC=CC[C@H]23)cc1OC`, the melting point is 219 to 220 °C.
Take `COc1ccc(C=NNS(=O)(=O)c2ccc(C)cc2)cc1`: the melting point fell in the range of 103 to 105 °C.
`O=[N+]([O-])C=C1SCCCN1S(=O)(=O)CCCCl` yielded a melting point of 99 °C.
The molecule `COc1ccc(-c2oncc2CCC(=O)O)cc1` displayed a melting point of 101 to 102 °C.
In turn, `CC1(C)CCCC(Cl)(Cl)C(=O)N1` yielded a melting point of 148 to 155 °C.
Consider `Cc1nccn1Cc1ccc(COc2cccc3c2CN(C2CCC(=O)NC2=O)C3=O)cc1` (stereo not given), for which the melting point is 275 to 277 °C.
The molecule `CC(=O)Nc1ncc(-c2cccc3ccccc23)o1` showed a melting point of 188 to 190 °C.
Molecule `O=S(=O)(Cl)c1cccc2[nH]nnc12` yielded a melting point of 173 to 175 °C.
`CSc1ncc2c(n1)C(C)CNN(C)C2=O` (stereo not given): the melting point is 153 to 155 °C.
Turning to `Cc1c(Cl)cccc1S(=O)(=O)Nc1ccc2ncccc2c1`, the melting point came out at 228 °C.
`Cc1sc(-c2ccccc2)nc1COc1ccc(CCl)cn1` gave a melting point of 78 to 79 °C.
As for `CNC(=S)Nc1ccccc1-c1ccccc1`, the melting point lay in the range of 152 to 153 °C.
To `O=C1CCC(N2Cc3c(OCc4ccc(CN5CCN(c6ccccn6)C(=O)C5)cc4)cccc3C2=O)C(=O)N1` (stereo not given) belongs 224 to 226 °C.
`CCOC(=O)Cc1ccc2oc3ccccc3c(=O)c2c1` came in with a melting point of 97 to 98 °C.
For the molecule `CCN1C(=O)c2cccnc2Nc2cccc(C)c21`, the melting point is 186 to 188 °C.
To `CO[Si](OC)(OC)O[Si](OC)(OC)O[Si](OC)(OC)OC` belongs below -70 °C.
`CCc1cccc(N2C(=S)SCC2(O)CC)n1` (stereo not given) returned a melting point of 84 °C.
The molecule `CCCn1cc(Cc2ccc(C(=O)NS(=O)(=O)c3ccccc3C)cc2OC)c2cc(CC3CCCN(C)C3=O)ccc21` (stereo not given) displayed a melting point of 120 to 128 °C.
In turn, `CN(C)CCCn1nc2c(c1-c1ccccc1)CCc1ccccc1-2` registered a melting point of 60 to 62 °C.
In turn, `CCCCCCCCCCc1ccc(C(=O)CCCCC(=O)O)cc1` had a melting point of 84 to 85 °C.
As to `O=C1C(Cl)=C(CC2CCCC(C(F)(F)F)C2)C(=O)c2ccccc21` (stereo not given), the melting point was 104 °C.
To `O=C1COC(C#CC2CC2)(C(F)(F)F)c2cc(Cl)ccc2N1` (stereo not given) belongs 200 °C; to `CCn1cnc2c(Nc3ccc(NC(=O)OC)cc3)nc(N[C@H]3CC[C@H](O)CC3)nc21`, 131 to 135 °C.
Molecule `CC(C)n1nc(-c2ncc(N)nc2-c2ccccc2Br)ccc1=O` displayed a melting point of 189 to 191 °C.
Take `COCC(=O)NCCC1CCCc2ccc(OC)cc21` (single isomer, unassigned; (-)): the melting point is 58 to 60 °C.
Take `CCN(CC)C(=O)Sc1cc(OC)c(OC)cc1C(=O)c1ccccc1`: the melting point is 114 to 116 °C.
As for `Cc1ccc(-c2n[nH]cc2C=O)s1`, the melting point lay within 97 to 99 °C.
In the case of `CCOC(=O)c1nnn(-c2ccccc2)c1Cl`, the melting point was in the range of 80 to 81 °C.
Regarding `Nc1ccc(OCOc2ccc(N)cc2[N+](=O)[O-])c([N+](=O)[O-])c1`, the melting point stood at 181 °C.
In the case of `COC(=O)c1cc(OC)c(N=Nc2ccccc2)c(OC)c1`, the melting point was in the range of 115 to 116 °C.
Under `CC(=O)C(=Cc1cc(O)c(O)c([N+](=O)[O-])c1)c1ccccc1` stands 170 to 176 °C; under `CCCc1nccn1N=Cc1ccccc1`, 61 to 62 °C; under `CC(=NOCCCC(=O)O)c1ccc(Cl)cc1`, 106 to 108 °C.
To `CCc1nc(N)nc(N)c1-c1ccc(NCc2ccccc2)c([N+](=O)[O-])c1` belongs 253 to 255 °C; to `CCc1cc(O)c2cccc(OC)c2n1`, 190 to 192 °C; to `NS(=O)(=O)c1ccccc1SCC(F)F`, 111 to 112 °C.
Under `OCc1nccn1CCCc1ccc(OCc2coc(/C=C/c3ccccc3)n2)cc1` stands 143 to 144 °C.
The molecule `CNC(=O)Nc1ccc(OC)c(-c2ccc(C[C@H](NC(=O)c3c(Cl)cccc3Cl)C(=O)O)cc2)c1OC` gave a melting point of 236 to 237 °C.
`CC(C(=O)O)=C1CCC2C3CCC4=CC(=O)CCC4(C)C3CCC12C` (stereo not given) displayed a melting point of 266 to 270 °C.
Turning to `Fc1ncccc1-c1cscc1Br`, the melting point lay in the range of 48 to 50 °C.
To `CC(C)(C)OC(=O)NCCc1ccc(OCCC2Oc3ccccc3N(Cc3ccccc3Cl)C2=O)cc1` (stereo not given) belongs 108 to 111 °C; to `CC(C)CS(=O)(=O)c1ccc(F)c(C#Cc2cc(Cl)ccc2OCC(=O)O)c1`, 141 to 143 °C.
`CC(=O)Cc1ccc(-c2noc3cc(Cl)ccc23)cc1`: the melting point was 109 to 110 °C.
`N#CC(N)=C(C#N)NCc1cnn(-c2c(Cl)cc(C(F)(F)F)cc2Cl)n1` returned a melting point of 191 to 192 °C.
Turning to `CC(=O)c1cc(N2CCOCC2)ccc1NC(=O)c1cccc(OCc2ccccc2)c1`, the melting point was in the range of 140 to 142 °C.
`C#Cc1ccc(OC)c(OC)c1` registered a melting point of 71 to 72 °C.
As for `COc1ncc(C2OC(CO)C(O)C2O)c(OC)n1` (stereo not given), the melting point was in the range of 138 to 139 °C.
For `C=CCOc1cccc2c1C(=O)OC2=O`, the melting point is 115 to 117 °C.
To `CC(=O)Oc1ccc(CCc2cccc(OC(C)=O)c2)cc1` belongs 69.5 to 70 °C; to `CC(=O)Nc1nc(CCc2ccc(NC(N)=S)cc2)c(Cc2ccc(S(C)(=O)=O)cc2)s1`, 102 to 103 °C; to `Oc1ccccc1-c1cc(Oc2ccc3cccnc3c2)ncn1`, 188 to 191 °C.
Molecule `COCC(=O)N[C@@H]1CCOc2ccccc21` had a melting point of 109 to 112 °C.
On to `O=C(/C=C/c1cccc(S(=O)(=O)N2CCN(c3cccc([N+](=O)[O-])c3)CC2)c1)NO`, for which the melting point stood at 162 °C.
To `COCCC1(C(=O)N[C@@H](Cc2ccc(N3C(=O)c4ccc(C#N)cc4C3=O)cc2)C(=O)O)CCCC1` belongs 143 to 146 °C.

A word on the melting point: it is the temperature, or range, at which the solid turns liquid.
